Results on 23 compounds are retold here after ChEMBL document CHEMBL1138908, “Design and structure-activity relationship of 3-benzimidazol-2-yl-1H-indazoles as inhibitors of receptor tyrosine kinases” (Bioorg Med Chem Lett, 2006).

The target of series [1] is Vascular endothelial growth factor receptor 2 (Mus musculus, UniProt P35918). Put plainly: Inhibition of VEGFR2.
Series [2] deals with Platelet-derived growth factor receptor beta (Mus musculus, UniProt P05622). Put plainly: Inhibition of PDGFRbeta.
Chain of Platelet-derived growth factor receptor beta (P05622 whole entry): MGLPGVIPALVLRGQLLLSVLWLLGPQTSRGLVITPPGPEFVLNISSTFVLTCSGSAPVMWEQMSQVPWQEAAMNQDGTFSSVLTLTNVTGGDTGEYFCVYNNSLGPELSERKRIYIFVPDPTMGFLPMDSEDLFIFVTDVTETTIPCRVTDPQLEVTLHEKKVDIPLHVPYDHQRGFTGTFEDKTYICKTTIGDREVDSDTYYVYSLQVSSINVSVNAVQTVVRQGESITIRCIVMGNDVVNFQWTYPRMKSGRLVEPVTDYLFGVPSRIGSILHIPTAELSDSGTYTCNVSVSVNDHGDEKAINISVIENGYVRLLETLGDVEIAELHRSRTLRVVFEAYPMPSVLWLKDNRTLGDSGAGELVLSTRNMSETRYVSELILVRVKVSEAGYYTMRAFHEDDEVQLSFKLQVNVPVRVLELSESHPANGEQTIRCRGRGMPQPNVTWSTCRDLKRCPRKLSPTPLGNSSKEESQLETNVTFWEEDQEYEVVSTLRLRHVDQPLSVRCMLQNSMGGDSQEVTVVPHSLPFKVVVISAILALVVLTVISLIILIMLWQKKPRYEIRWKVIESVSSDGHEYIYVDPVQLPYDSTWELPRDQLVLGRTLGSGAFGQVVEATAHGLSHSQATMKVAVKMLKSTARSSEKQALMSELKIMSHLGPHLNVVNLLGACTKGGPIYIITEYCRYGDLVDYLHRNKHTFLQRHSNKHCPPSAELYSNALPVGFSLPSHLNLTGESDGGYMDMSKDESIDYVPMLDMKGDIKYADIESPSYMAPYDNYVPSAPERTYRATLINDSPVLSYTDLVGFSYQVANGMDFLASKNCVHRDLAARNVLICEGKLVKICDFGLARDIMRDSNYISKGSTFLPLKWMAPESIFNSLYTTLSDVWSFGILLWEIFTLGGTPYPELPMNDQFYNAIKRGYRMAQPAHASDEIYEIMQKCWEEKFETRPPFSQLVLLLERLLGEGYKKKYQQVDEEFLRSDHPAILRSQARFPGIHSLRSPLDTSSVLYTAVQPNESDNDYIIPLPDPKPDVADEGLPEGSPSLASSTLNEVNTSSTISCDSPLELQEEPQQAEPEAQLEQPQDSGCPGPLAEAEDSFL
For series [3], the system named is HMEC. The series can be described thus: Inhibition of VEGF-mediated proliferation of HMVEC. It counts as functional, cell-based. The conditions noted are these: Homo sapiens.
Series [4] deals with Fibroblast growth factor receptor 1 (Homo sapiens, UniProt P11362). The series can be described thus: Inhibition of FGFR1.
Chain of Fibroblast growth factor receptor 1 (P11362 whole entry): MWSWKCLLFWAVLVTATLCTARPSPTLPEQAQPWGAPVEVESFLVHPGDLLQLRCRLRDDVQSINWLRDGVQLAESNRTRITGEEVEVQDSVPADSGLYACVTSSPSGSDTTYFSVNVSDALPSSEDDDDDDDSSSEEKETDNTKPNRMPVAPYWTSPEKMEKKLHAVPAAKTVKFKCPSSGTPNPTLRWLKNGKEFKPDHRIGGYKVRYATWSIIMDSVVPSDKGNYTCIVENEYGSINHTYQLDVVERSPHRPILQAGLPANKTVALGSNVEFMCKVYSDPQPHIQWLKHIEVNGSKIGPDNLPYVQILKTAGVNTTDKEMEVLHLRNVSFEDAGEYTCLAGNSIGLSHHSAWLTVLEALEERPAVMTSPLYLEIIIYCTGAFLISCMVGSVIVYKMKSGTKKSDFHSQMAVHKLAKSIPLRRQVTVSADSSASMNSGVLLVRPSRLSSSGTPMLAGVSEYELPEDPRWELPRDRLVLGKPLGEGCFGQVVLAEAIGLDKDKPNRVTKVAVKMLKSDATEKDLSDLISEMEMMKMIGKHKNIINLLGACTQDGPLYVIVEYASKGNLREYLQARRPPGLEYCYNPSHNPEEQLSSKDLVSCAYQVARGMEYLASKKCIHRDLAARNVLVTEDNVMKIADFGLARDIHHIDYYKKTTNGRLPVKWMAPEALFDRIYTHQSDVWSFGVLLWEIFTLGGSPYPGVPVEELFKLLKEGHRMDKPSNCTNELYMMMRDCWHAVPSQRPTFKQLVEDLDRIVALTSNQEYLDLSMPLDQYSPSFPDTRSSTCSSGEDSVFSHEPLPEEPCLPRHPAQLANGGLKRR
Series [5] deals with Vascular endothelial growth factor receptor 1 (Homo sapiens, UniProt P17948). The series can be described thus: Inhibition of VEGFR1.
Chain of Vascular endothelial growth factor receptor 1 (P17948 whole entry): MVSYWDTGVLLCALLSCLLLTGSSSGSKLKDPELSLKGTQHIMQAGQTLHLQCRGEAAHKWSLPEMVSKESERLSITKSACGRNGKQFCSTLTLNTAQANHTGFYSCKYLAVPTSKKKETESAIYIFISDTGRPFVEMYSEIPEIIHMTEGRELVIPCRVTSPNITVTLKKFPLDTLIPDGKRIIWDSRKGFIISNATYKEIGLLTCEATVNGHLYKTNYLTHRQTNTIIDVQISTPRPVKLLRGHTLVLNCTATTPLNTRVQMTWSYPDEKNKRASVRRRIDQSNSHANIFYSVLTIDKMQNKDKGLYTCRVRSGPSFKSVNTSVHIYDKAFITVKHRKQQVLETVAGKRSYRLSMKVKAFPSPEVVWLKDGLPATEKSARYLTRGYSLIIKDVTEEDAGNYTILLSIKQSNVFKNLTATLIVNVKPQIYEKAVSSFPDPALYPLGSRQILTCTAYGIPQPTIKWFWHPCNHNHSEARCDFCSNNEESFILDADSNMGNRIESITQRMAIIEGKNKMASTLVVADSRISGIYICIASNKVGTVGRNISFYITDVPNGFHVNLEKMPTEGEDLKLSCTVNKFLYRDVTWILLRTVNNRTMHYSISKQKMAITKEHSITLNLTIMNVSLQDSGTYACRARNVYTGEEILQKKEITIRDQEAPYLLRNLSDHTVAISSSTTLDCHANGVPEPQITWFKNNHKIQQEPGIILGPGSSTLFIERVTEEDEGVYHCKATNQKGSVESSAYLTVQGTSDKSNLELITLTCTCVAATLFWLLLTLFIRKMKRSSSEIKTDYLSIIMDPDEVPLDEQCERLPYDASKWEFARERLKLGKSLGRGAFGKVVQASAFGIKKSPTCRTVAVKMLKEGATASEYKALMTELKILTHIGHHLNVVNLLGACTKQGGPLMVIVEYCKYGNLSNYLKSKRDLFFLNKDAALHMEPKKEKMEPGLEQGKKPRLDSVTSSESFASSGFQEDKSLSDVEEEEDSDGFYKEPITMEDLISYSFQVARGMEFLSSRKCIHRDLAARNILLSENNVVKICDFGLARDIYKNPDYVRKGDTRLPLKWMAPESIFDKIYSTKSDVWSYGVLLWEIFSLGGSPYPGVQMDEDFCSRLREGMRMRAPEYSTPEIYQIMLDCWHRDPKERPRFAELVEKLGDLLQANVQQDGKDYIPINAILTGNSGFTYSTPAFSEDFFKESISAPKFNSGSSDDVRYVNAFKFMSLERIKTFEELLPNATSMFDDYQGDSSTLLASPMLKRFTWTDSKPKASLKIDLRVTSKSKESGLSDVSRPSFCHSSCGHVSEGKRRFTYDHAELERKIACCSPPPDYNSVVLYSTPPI
Series [6] can be described thus: Volume of distribution in mouse. It counts as ADME, organism-based. The conditions noted are these: in vivo, read-out: Vdss.
Series [7] in a line: Half life in mouse. The format is ADME, organism-based. The conditions noted are these: in vivo.
Series [8] is described as follows: Clearance in mouse. The conditions noted are these: in vivo. It counts as ADME, organism-based.
Series [9] deals with KM12. Put plainly: Antitumor activity against human KM12L4a cell line xenografted in nude mice at 30 mg/kg, after 14 days. It counts as functional. The conditions noted are these: Mus musculus, KM12, 336 h, read-out: TGI. (Xenograft models place foreign cells or tissue in a host animal.)
Series [10] deals with KM12. The series can be described thus: Antitumor activity against human KM12L4a cell line xenografted in nude mice at 100 mg/kg, after 14 days. As to conditions: Mus musculus, KM12, 336 h, read-out: TGI. It counts as functional.
The species entered for series [11] is Mus musculus. Put plainly: Area under curve in mouse. It counts as ADME, organism-based. The conditions noted are these: in vivo.
Series [12] in a line: Oral bioavailability in mouse. The format is ADME, organism-based. The conditions noted are these: in vivo.

As usually defined, the IC50 is the concentration that inhibits the measured activity by half. A lower IC50 goes with higher potency. Broadly, the EC50 is the midpoint of the concentration-response curve. The term half-life denotes how long it takes for the measured level to halve. Low values mean fast loss, high ones slow loss. Broadly, the clearance is a measure of how efficiently the substance is removed, as volume per time. Usually AUC stands for concentration integrated over time. A higher AUC goes with more exposure. As usually defined, the bioavailability is dose-corrected exposure relative to a reference, in per cent. High values mean much systemic uptake, low ones little systemic uptake.

Chain of Vascular endothelial growth factor receptor 2 (P35918 whole entry): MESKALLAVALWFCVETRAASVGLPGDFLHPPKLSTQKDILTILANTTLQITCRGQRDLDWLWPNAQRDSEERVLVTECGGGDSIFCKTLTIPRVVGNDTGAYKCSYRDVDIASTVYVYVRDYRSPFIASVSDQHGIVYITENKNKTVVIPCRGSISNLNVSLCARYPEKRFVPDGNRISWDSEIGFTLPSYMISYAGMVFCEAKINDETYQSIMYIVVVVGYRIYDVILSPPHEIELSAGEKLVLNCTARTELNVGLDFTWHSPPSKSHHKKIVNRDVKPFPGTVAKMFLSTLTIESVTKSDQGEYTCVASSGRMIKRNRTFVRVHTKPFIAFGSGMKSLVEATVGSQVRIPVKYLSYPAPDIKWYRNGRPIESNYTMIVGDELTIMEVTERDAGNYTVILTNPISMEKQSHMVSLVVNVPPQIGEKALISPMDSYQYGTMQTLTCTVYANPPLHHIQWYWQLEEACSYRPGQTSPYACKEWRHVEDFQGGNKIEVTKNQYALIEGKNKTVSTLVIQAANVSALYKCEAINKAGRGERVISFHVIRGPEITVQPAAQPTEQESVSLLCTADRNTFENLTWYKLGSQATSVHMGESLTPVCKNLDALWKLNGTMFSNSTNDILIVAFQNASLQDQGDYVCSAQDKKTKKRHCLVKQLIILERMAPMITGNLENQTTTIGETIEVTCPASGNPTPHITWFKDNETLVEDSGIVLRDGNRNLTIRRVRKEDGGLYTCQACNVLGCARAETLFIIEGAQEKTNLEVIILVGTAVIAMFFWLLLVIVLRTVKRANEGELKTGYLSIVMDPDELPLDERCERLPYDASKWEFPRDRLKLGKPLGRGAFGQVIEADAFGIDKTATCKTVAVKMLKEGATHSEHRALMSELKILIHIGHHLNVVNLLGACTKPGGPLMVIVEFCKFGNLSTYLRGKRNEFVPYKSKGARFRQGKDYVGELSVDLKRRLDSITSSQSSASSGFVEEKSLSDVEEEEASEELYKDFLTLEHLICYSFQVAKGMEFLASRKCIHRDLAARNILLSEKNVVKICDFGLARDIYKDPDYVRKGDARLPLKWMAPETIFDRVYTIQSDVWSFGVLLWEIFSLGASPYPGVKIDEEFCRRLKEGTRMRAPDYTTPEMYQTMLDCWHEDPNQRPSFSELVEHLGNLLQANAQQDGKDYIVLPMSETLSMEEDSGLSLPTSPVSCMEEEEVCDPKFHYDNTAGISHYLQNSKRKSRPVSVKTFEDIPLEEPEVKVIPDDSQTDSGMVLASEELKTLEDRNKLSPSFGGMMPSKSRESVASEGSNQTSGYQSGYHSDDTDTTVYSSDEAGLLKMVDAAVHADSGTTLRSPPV

As to `c1ccc(COc2ccc3[nH]nc(-c4nc5ccc(N6CCC(N7CCCCC7)CC6)cc5[nH]4)c3c2)cc1`, the IC50 in series [1] was 30 nM; in [2], 83 nM; in series [4], 8 nM; in series [5], 3 nM. In series [3], this compound came in with an EC50 of 190 nM.

Consider `Nc1c(-c2nc3ccccc3[nH]2)c(=O)[nH]c2ccccc12`, for which a half-maximal effect in series [3] (EC50) was put at 78 nM.

`c1ccc(COc2ccc3c(-c4nc5ccc(N6CCC(N7CCCCC7)CC6)cc5[nH]4)n[nH]c3c2)cc1`: the IC50 in series [1] worked out at 21 nM; in series [2] it was 180 nM; in series [4], 23 nM; in [5], 11 nM. Besides, in series [3], a half-maximal effect (EC50) was put at 220 nM.

For the compound `c1ccc2c(-c3nc4ccc(N5CCOCC5)cc4[nH]3)n[nH]c2c1`, the 50% inhibitory concentration (IC50) in series [1] was 160 nM; in [2], 260 nM; in [4], 100 nM; in series [5], 50 nM. In series [3], this compound registered an EC50 of 160 nM.

Regarding `CN1CCN(c2ccc3[nH]c(-c4[nH]nc5ccccc45)nc3c2)CC1`, the IC50 was determined as 130 nM in series [1], 170 nM in series [2], 82 nM in [4] and 44 nM in [5]. The compound also showed a 50% effective concentration (EC50) in [3] of 97 nM.

On to `c1cc2[nH]nc(-c3nc4ccc(N5CCC(N6CCCCC6)CC5)cc4[nH]3)c2cc1NCC1CCCCC1`, for which the IC50 is 44 nM in series [1], 1700 nM in series [2], 16 nM in [4] and 21 nM in series [5]. This compound also returned an EC50 in series [3] of 220 nM.

In the case of `CC(C)(C)NC(=O)Nc1ccc2[nH]nc(-c3nc4ccc(N5CCC(N6CCCCC6)CC5)cc4[nH]3)c2c1`, the IC50 in series [1] worked out at 5 nM; in [2], 81 nM. This compound yielded an EC50 in series [3] of 350 nM.

As for `CC(C)(C)NC(=O)Nc1cccc2c(-c3nc4cc(N5CCC(N6CCCCC6)CC5)ccc4[nH]3)[nH]nc12`, the IC50 in [1], in series [2], in series [4] and in series [5] was greater than 3000 nM throughout.

Turning to `CC(C)(C)NC(=O)Nc1cccc2[nH]nc(-c3nc4cc(N5CCC(N6CCCCC6)CC5)ccc4[nH]3)c12`, the IC50 stood at 70 nM in [1], 440 nM in [2], 3 nM in [4] and 4 nM in series [5]. This compound also registered an EC50 in series [3] of 240 nM.

Turning to `FC(F)(F)c1ccc2c(-c3nc4ccc(N5CCC(N6CCCCC6)CC5)cc4[nH]3)n[nH]c2c1`, the IC50 was 52 nM in series [1] and 62 nM in series [2]. For the same compound, in [3], the midpoint of the response, the EC50, lay at 4 nM.

Turning to `c1ccc(Oc2ccc3n[nH]c(-c4nc5cc(N6CCC(N7CCCCC7)CC6)ccc5[nH]4)c3c2)cc1`, the half-maximal inhibitory concentration (IC50) in [1] was found to be 44 nM; in [2], 8 nM; in [4], 15 nM; in series [5], 28 nM. The response in [3] was half-maximal at 80 nM (EC50).

Turning to `c1ccc(COc2cccc3c(-c4nc5cc(N6CCC(N7CCCCC7)CC6)ccc5[nH]4)[nH]nc23)cc1`, the IC50 in series [1], in series [2], in series [4] and in series [5] was greater than 3000 nM in each case. The compound also yielded a half-maximal effective concentration (EC50) in series [3] of 1800 nM.

Consider `c1ccc(COc2cccc3[nH]nc(-c4nc5cc(N6CCC(N7CCCCC7)CC6)ccc5[nH]4)c23)cc1`, for which the IC50 was found to be 660 nM in series [1], 1800 nM in series [2], 94 nM in series [4] and 63 nM in series [5]. The compound further yielded an EC50 in [3] of 460 nM.

Turning to `CN1CCC(N(C)c2ccc3nc(-c4n[nH]c5ccccc45)[nH]c3c2)CC1`, the IC50 in series [1] amounted to 150 nM; in [2], 500 nM; in series [4] it was 18 nM; in [5] it was 8 nM. Further, in series [3], the EC50 is 220 nM.

As for `c1ccc2c(-c3nc4cc(OCCCN5CCCC5)ccc4[nH]3)[nH]nc2c1`, the IC50 was 170 nM in [1], 440 nM in series [2], 98 nM in series [4] and 48 nM in [5]. This compound also showed an EC50 in [3] of 270 nM.

Take `COC(=O)c1ccc2[nH]nc(-c3nc4ccc(N5CCC(N6CCCCC6)CC5)cc4[nH]3)c2c1`: the 50% inhibitory concentration (IC50) in series [1] turned out to be 31 nM; in series [2], 63 nM; in [4], 73 nM; in series [5] it was 15 nM. This compound registered an EC50 in [3] of 130 nM.

Consider `c1ccc2c(-c3nc4cc(-n5ccnc5)ccc4[nH]3)n[nH]c2c1`, for which the IC50 in series [1] turned out to be 83 nM; in series [2], 1400 nM; in series [4] it was 210 nM; in series [5], 96 nM. The EC50 in [3] was found to be 7000 nM.

For the compound `Fc1cccc2c(-c3nc4ccc(N5CCC(N6CCCCC6)CC5)cc4[nH]3)n[nH]c12`, the IC50 amounted to 330 nM in series [1], 2300 nM in series [2], 200 nM in series [4] and 150 nM in series [5]. For the same compound, the 50% effective concentration (EC50) in [3] amounted to 1400 nM.

For the compound `c1ccc2[nH]c(-c3n[nH]c4ccccc34)nc2c1`, the IC50 in series [1] was 3300 nM; in series [2], 3400 nM; in series [4], 1400 nM; in [5], 720 nM. For the same compound, the midpoint of the response in [3], the EC50, lay at 5900 nM.

Consider `c1ccc2c(-c3nc4c(N5CCOCC5)cccc4[nH]3)n[nH]c2c1`, for which the half-inhibitory concentration (IC50) is greater than 3000 nM in [1], greater than 3000 nM in series [2], 830 nM in series [4] and greater than 3000 nM in series [5]. Also, the EC50 in series [3] was greater than 10000 nM.

On to `CN1CCN(Cc2ccc3[nH]c(-c4[nH]nc5ccccc45)nc3c2)CC1`, for which the IC50 in [1] turned out to be 260 nM; in series [2], 1900 nM; in series [4] it was 270 nM; in series [5] it was 170 nM. Besides, the midpoint of the response in series [3], the EC50, lay at 300 nM.

`c1ccc2c(-c3nc4ccc(N5CCC(N6CCCCC6)CC5)cc4[nH]3)n[nH]c2c1`: the IC50 in series [1] turned out to be 78 nM; in [2], 690 nM; in [4], 48 nM; in series [5], 28 nM. In addition, it took 97 nM to reach a half-maximal effect in [3] (EC50).

As for `Fc1ccc2c(-c3nc4cc(N5CCC(N6CCCCC6)CC5)ccc4[nH]3)[nH]nc2c1`, the IC50 in [1] was 28 nM; in series [2], 310 nM; in series [4] it was 28 nM; in series [5], 10 nM. The Vd in series [6] is 24.8 L/kg. Further, the half-life in [7] was determined as 4.22 h. The compound further came in with a clearance in series [8] of 71 mL/min/kg. This compound also had an EC50 in series [3] of 33 nM. The inhibition in vivo at 30 mg/kg in series [9] worked out at 50%. In addition, in [10], the inhibition in vivo at 100 mg/kg is 88%. For the same compound, the AUC in [11] stood at 2830 ng·h/mL. In series [12], this compound came in with a bioavailability of 62%.
